# Measured values published in ChEMBL document CHEMBL4402522, “Exploring the new horizons of drug repurposing: A vital tool for turning hard work into smart work” (2019).
# Columns and labels:
# C6 [1] = assay: (§1) Antitumour activity against rat C6 cells implanted in Wistar rat assessed as reduction in reactive astrocytes induced peri-tumoral areas at 25 mg/kg, ip administered on alternate days in total 3 doses and measured on day 7 co-treated with temozolomide by immunohistochemical analysis relative to control; format: functional; parameters: scale not given: the % may be the effect or the level left
# C6 [2] = assay: as §1, with “induced” for “induced peri-tumoral”, “areas of blood vessels” for “areas”; format: functional; parameters: scale not given: the % may be the effect or the level left
compound,measurement,setting,value
CC[C@H](CO)Nc1nc(NCc2ccccc2)c2ncn(C(C)C)c2n1 [SELICICLIB],Activity,C6 [1],100%
same,Activity,C6 [2],100%
